# Test results: PubChem BioAssay (NCI)
# Values joined by “and” are separate entries in the source; they are usually repeats but may differ in a detail not shown here. Identical values can stand only once.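 These data come from cells grown in 96-well plates and exposed to compound for 48 hours at five concentrations. The concentration for 50% growth inhibition is given as GI50. TGI marks complete inhibition of growth.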
# How the values were obtained:
# Assay in all cases: NCI tumour cell line growth inhibition, 48 h
# A549 NSCLC = system: A549 NSCLC
# HOP-62 NSCLC = system: HOP-62 NSCLC
# K-562 leukemia = system: K-562 leukemia
# MDA-MB-435 = system: MDA-MB-435
# MDA-N = system: MDA-N
# NCI-H522 lung = system: NCI-H522 lung
# NCI/ADR-RES ovarian = system: NCI/ADR-RES ovarian
# SK-OV-3 ovarian = system: SK-OV-3 ovarian
# SNB-19 CNS = system: SNB-19 CNS
# TK-10 renal = system: TK-10 renal
# UACC-62 melanoma = system: UACC-62 melanoma
# UO-31 renal = system: UO-31 renal
# NCI-H226 lung = system: NCI-H226 lung
# RPMI-8226 leukemia = system: RPMI-8226 leukemia
# SN12C renal = system: SN12C renal
# SNB-75 CNS = system: SNB-75 CNS
# UACC-257 melanoma = system: UACC-257 melanoma
SMILES,TGI (A549 NSCLC) [µM],TGI (HOP-62 NSCLC) [µM],TGI (K-562 leukemia) [µM],TGI (MDA-MB-435) [µM],TGI (MDA-N) [µM],TGI (NCI-H522 lung),TGI (NCI/ADR-RES ovarian) [µM],TGI (SK-OV-3 ovarian) [µM],TGI (SNB-19 CNS) [µM],TGI (TK-10 renal) [µM],TGI (UACC-62 melanoma) [µM],TGI (UO-31 renal) [µM],TGI (NCI-H226 lung) [µM],TGI (RPMI-8226 leukemia) [µM],TGI (SN12C renal) [µM],TGI (SNB-75 CNS) [µM],TGI (UACC-257 melanoma) [µM],GI50 (NCI-H226 lung) [µM],GI50 (NCI-H522 lung) [µM]
CC(C)(C)[Si](C)(C)OC1/C(=C/C#N)C(n2ccc(=O)[nH]c2=O)OC1CO (stereo unspecified),> 100,> 100,> 100,> 100,> 100,> 100 µM,> 100,> 100,> 100,> 100,> 100,> 100,–,–,–,–,–,–,–
Cc1ccsc1/C=N/Nc1ccc2ccccc2n1,> 100,68.8,> 100,> 100,> 100,–,> 100,48,> 100,66.2,> 100,> 100,> 100,> 100,> 100,> 100,53.2,–,–
COc1ccc(C(OCC2OC(n3cc(C)c(=O)[nH]c3=O)CC2n2cc(Cn3cc(Br)c(=O)[nH]c3=O)nn2)(c2ccccc2)c2ccccc2)cc1 (stereo unspecified),> 100,> 100,–,> 100,> 100,> 100 µM,> 100,> 100,> 100,> 100,> 100,> 100,> 100,> 100,> 100,> 100,> 100,–,–
O=C(/C=C/C=C/c1ccccc1)c1ccc2c(c1)CCCC2,> 100,> 100,> 100,40.8,62.8,37.7 µM,65.8,> 100,> 100,> 100,> 100,> 100,90.9,> 100,> 100,–,> 100,–,–
COc1ccc(C(OC(C)=O)C2C(=C(C#N)C#N)c3ccccc3C2=C(C#N)C#N)cc1 (stereo unspecified),–,62.6,> 100,> 100,> 100,> 100 µM,> 100,62.8,–,> 100,–,75.1,> 100,60.4,–,> 100,> 100,–,–
CC(C)C1=C(Cc2ccccc2)C(=O)O/C1=C\c1cc(Cl)c(O)c(Cl)c1,50.5,42.4,40.5,35.4,37.4,–,52.3,39.7,37.1,55.1,36,27.1,39.5,65.6,35.6,36.8,32.2,–,–
Cc1cn(CCCCCOC(=O)NC(CCCN=C(N)N)C(=O)O)c(=O)[nH]c1=O (stereo unspecified),> 100,> 100,> 100,47.5,31.3,–,> 100,> 100,> 100,> 100,> 100,> 100,> 100,57,> 100,> 100,> 100,–,–
O=C1/C(=C/c2ccccc2)NC(=S)N1CN1CCOCC1,> 100,> 100,> 100,> 100,> 100,–,> 100,> 100,> 100,> 100,> 100,> 100,> 100,> 100,> 100,> 100,> 100,–,–
CSc1nncc2[nH]c(C)nc12,> 100,> 100,> 100,> 100,> 100,> 100 µM,> 100,> 100,–,> 100,> 100,> 100,> 100,> 100,> 100,> 100,> 100,–,–
COC(=O)c1c(O)ccc2c1c1c(n2Cc2ccc(Cl)cc2Cl)C(=O)c2ccccc2C1,> 100,> 100,> 100,> 100,> 100,–,> 100,> 100,> 100,> 100,> 100,> 100,73.2,49,55.2,58.7,> 100,–,–
CC(C)(C)C(=O)OC(N)/C=C/c1ccccc1 (stereo unspecified),> 100,> 100,–,> 100,> 100,> 100 µM,> 100,> 100,–,–,> 100,> 100,> 100,> 100,> 100,> 100,> 100,–,–
CCOP(=O)(O)C(C)(C)NC,> 100,> 100,> 100,> 100,> 100,> 100 µM,> 100,> 100,> 100,> 100,> 100,> 100,> 100,> 100,> 100,–,> 100,–,–
Cc1c(CNc2ccc(C(=O)NC(CC(=O)O)C(=O)O)cc2)ccc2nc(N)nc(N)c12 (stereo unspecified),> 1000,> 1000,> 1000,> 1000,> 1000,> 73.8 µM and 691 µM,> 1000,–,> 1000,–,> 1000,> 1000,> 1000,–,> 1000,–,> 1000,> 1000,0.57
Cc1cc(OCc2nnc3n2N=C(c2cc(F)c(Cl)cc2Cl)/C(=C/c2ccc(Cl)cc2)S3)ccc1Cl,–,> 100,56.2,> 100,> 100,36.4 µM,> 100,> 100,–,> 100,–,> 100,> 100,33.2,–,–,> 100,–,–
CC1(C)OC(=C(C#N)C#N)C(C#N)=C1/C=C/c1ccncc1,34.1,–,7.04,10.6,7.27,4.12 µM,4.13,16.8,6.16,4.12,3.93,8.34,4.65,4.21,5.75,8.68,8.27,–,–
